The source of these data is ChEMBL document CHEMBL4190384, “Design, synthesis and biological evaluation of substituted (+)-SG-1 derivatives as novel anti-HIV agents” (Bioorg Med Chem Lett, 2018).

Structures are written as SMILES.

Data set [1] relates to Human immunodeficiency virus 1. Kind of data set: Antiviral activity against HIV1 virions derived from HIV/[…] or HIV/HA virions infected 293T cells using human A549 cells as target cells assessed as inhibition of viral replication using compound pre-mixed virions followed by incubation with target cells for 24 hrs by luciferase reporter gene assay based defective HIV1 pseudoviral assay. It is filed as functional, organism-based. The following applies: Human immunodeficiency virus 1, 24 h. In general terms: Reporter assays use an easily measured gene product as a stand-in for the process of interest.

Another data set deals with A549. Kind of data set: Cytotoxicity against human A549 cells at 10 uM after 48 hrs by CellTiter 96 AQueous one solution cell proliferation assay. The data set is classed as cell-based. The following applies: a549, 48 h.
Data set [2] has as its system Human immunodeficiency virus 1. As to the kind of experiment: Antiviral activity against HIV1 virions containing reverse transcriptase K103N mutant derived from HIV/[…] or HIV/HA virions infected 293T cells using human A549 cells as target cells assessed as inhibition of viral replication using compound pre-mixed virions followed by incubation with target cells for 24 hrs by luciferase reporter gene assay based defective HIV1 pseudoviral assay. It is filed as functional, organism-based. The following applies: Human immunodeficiency virus 1, 24 h.

Data set [3] relates to Human immunodeficiency virus 1. As to the kind of experiment: Resistance index, ratio of IC50 for antiviral activity against HIV1 virions containing reverse transcriptase K103N mutant derived from HIV/[…] or HIV/HA virions infected 293T cells using human A549 cells as target cells to IC50 for antiviral activity against wild type HIV1 virions derived from HIV/[…] or HIV/HA virions infected 293T cells using human A549 cells as target cells. The data set is classed as functional.

The test system of data set [4] is Human immunodeficiency virus 1. As to the kind of experiment: Antiviral activity against HIV1 virions containing reverse transcriptase Y181C mutant derived from HIV/[…] or HIV/HA virions infected 293T cells using human A549 cells as target cells assessed as inhibition of viral replication using compound pre-mixed virions followed by incubation with target cells for 24 hrs by luciferase reporter gene assay based defective HIV1 pseudoviral assay. The following applies: Human immunodeficiency virus 1, 24 h. The data set is classed as functional, organism-based.

In data set [5] the test system is Human immunodeficiency virus 1. As to the kind of experiment: Resistance index, ratio of IC50 for antiviral activity against HIV1 virions containing reverse transcriptase Y181C mutant derived from HIV/[…] or HIV/HA virions infected 293T cells using human A549 cells as target cells to IC50 for antiviral activity against wild type HIV1 virions derived from HIV/[…] or HIV/HA virions infected 293T cells using human A549 cells as target cells. It is filed as functional.

For data set [6], the system named is Human immunodeficiency virus 1. As to the kind of experiment: Antiviral activity against HIV1 virions containing reverse transcriptase E138K/M184V mutant derived from HIV/VSG-G or HIV/HA virions infected 293T cells using human A549 cells as target cells assessed as inhibition of viral replication using compound pre-mixed virions followed by incubation with target cells for 24 hrs by luciferase reporter gene assay based defective HIV1 pseudoviral assay. Particulars: Human immunodeficiency virus 1, 24 h. It is filed as functional, organism-based.

In data set [7] the test system is Human immunodeficiency virus 1. As to the kind of experiment: Resistance index, ratio of IC50 for antiviral activity against HIV1 virions containing reverse transcriptase E138K/M184V mutant derived from HIV/[…] or HIV/HA virions infected 293T cells using human A549 cells as target cells to IC50 for antiviral activity against wild type HIV1 virions derived from HIV/[…] or HIV/HA virions infected 293T cells using human A549 cells as target cells. It is filed as functional.

For data set [8], the system named is Human immunodeficiency virus 1. As to the kind of experiment: Antiviral activity against human HIV1 by VSV-G/HIV1 infection assay. The data set is classed as functional, organism-based.

Usually IC50 stands for the concentration that inhibits the measured activity by half.

For `COc1cc2c(cc1OC)[C@H](c1cc(OC)c(OC)c(OC)c1)[C@@H](C)CC2`, the IC50 in [1] is 0.09 µM; in [2], 0.15 µM; in data set [4], over 10 µM; in data set [6] it was 0.18 µM. For the same compound, the Activity entry in the data set with A549 is on record as “Non-Toxic”. In addition, the “Ratio IC50” value in [3] was 1.7; in data set [5] it was over 111; in data set [7], 2.

In the case of `COc1cc2c(cc1OC)N(c1cc(OC)c(OC)c(OC)c1)CCC2`, the IC50 in data set [1] was found to be 4.96 µM. Also, in the data set on A549, the Activity result was “Non-Toxic”.

With `COc1ccc([C@H]2c3cc(OC)c(OC)cc3C[C@H](C)[C@@H]2C)cc1OC`, the IC50 in [8] was 1.07 µM; in data set [1], 0.86 µM; in data set [2] it was 1.38 µM; in [4] it was over 10 µM; in [6], 4.02 µM. Besides, the Activity result in the data set with A549 is given as “Non-Toxic”. The “Ratio IC50” value is given as 1.6 in [3], over 11.6 in data set [5] and 4.7 in data set [7].

Regarding `COc1ccc([C@H]2c3cc(OC)c(OC)cc3C[C@@H]2C)cc1OC`, in data set [1], the IC50 was 4.42 µM. In addition, in the data set on A549, the Activity result is listed as “Non-Toxic”.

In the case of `COc1ccc([C@@H]2c3cc(OC)c(OC)cc3C[C@H](C)[C@H]2C)cc1OC`, the IC50 in data set [1] is over 10 µM. In addition, in the data set on A549, the Activity entry is on record as “Non-Toxic”.

For `COc1cc2c(cc1OC)[C@H](c1cc(OC)c(OC)c(OC)c1)[C@@H](C)C2`, the IC50 in data set [1] turned out to be 0.34 µM. In the data set on A549, the Activity result was “Non-Toxic”.

As for `COc1cc(CCC(=O)N2C(=O)OC[C@@H]2Cc2ccccc2)cc(OC)c1OC`, in data set [1], the IC50 was over 10 µM. The Activity result in the data set on A549 is “Non-Toxic”.

For `COc1cc2c(cc1OC)[C@@H](c1ccc3c(c1)OCO3)[C@H](C)[C@@H](C)C2`, the IC50 in [1] was over 10 µM. The Activity entry in the data set on A549 is “Non-Toxic”.

For the compound `COc1cc([C@H]2c3c(cc(OC)c(OC)c3OC)C[C@H](C)[C@@H]2C)cc(OC)c1OC`, the IC50 in [1] is 0.69 µM; in [2], 0.76 µM; in data set [4], over 10 µM; in data set [6], 5.91 µM. For the same compound, in the data set on A549, the Activity entry was “Non-Toxic”. Also, the “Ratio IC50” value in [3] is reported as 1.1; in data set [5] it was over 14.5; in data set [7], 8.6.

As for `CO/N=C(\c1ccc(OC)c(OC)c1)c1cc(OC)c(OC)c(OC)c1`, the IC50 in data set [1] was over 10 µM. For the same compound, the Activity entry with A549 is given as “Non-Toxic”.

`COc1cc2c(cc1OC)[C@@H](c1cc(OC)c(OC)c(OC)c1)[C@H](C)CC2`: the IC50 is 1.02 µM in data set [1], 1.73 µM in data set [2], over 10 µM in [4] and 7.13 µM in data set [6]. For the same compound, in the data set on A549, the Activity result is reported as “Non-Toxic”. For the same compound, the “Ratio IC50” value in data set [3] is listed as 1.7; in data set [5], over 9.8; in data set [7] it was 7.

Consider `COc1cc2c(cc1OC)[C@@H](c1cc(OC)c(OC)c(OC)c1)[C@H](C)[C@@H](C)C2`, for which the IC50 in data set [1] is over 10 µM. Besides, in the data set with A549, the Activity entry was “Non-Toxic”.

For `COc1cc2c(cc1OC)[C@H](c1cc(OC)c(OC)c(OC)c1)[C@@H](C)[C@@H](C)C2`, the IC50 was found to be 0.16 µM in data set [1], 0.18 µM in data set [2], 10.8 µM in data set [4] and 1.38 µM in [6]. For the same compound, the Activity entry with A549 is reported as “Non-Toxic”. For the same compound, the “Ratio IC50” value is on record as 1.1 in [3], 67.5 in data set [5] and 8.6 in data set [7].

Take `COc1cc2c(cc1OC)N(c1cc(OC)c(OC)c(OC)c1)C(=O)CC2`: in [1], the IC50 was over 10 µM. Also, the Activity result in the data set on A549 is “Non-Toxic”.

Take `COc1ccc(/C(=N/O)c2cc(OC)c(OC)c(OC)c2)cc1OC`: the IC50 in data set [1] is over 10 µM. Moreover, in the data set on A549, the Activity result is reported as “Non-Toxic”.

Turning to `COc1ccc(C(=O)c2cc(OC)c(OC)c(OC)c2)cc1OC`, the IC50 in [1] was over 10 µM. Also, the Activity result with A549 is reported as “Non-Toxic”.

Regarding `CCC1CCc2cc(OC)c(OC)cc2N1c1cc(OC)c(OC)c(OC)c1` (racemic), the IC50 in data set [1] was 0.72 µM. Moreover, the Activity result in the data set on A549 is on record as “Non-Toxic”.

`CCCC1CCc2cc(OC)c(OC)cc2N1c1cc(OC)c(OC)c(OC)c1` (racemic): the IC50 in data set [1] is 1.28 µM. Also, the Activity entry in the data set on A549 is reported as “Non-Toxic”.

On to `COc1cc2c(cc1OC)N(c1cc(OC)c(OC)c(OC)c1)C(C)CC2` (racemic), for which the IC50 was 0.94 µM in data set [1], 1.4 µM in [2], over 10 µM in data set [4] and 8.53 µM in data set [6]. For the same compound, the Activity entry in the data set with A549 was “Non-Toxic”. In addition, the entries for the “Ratio IC50” value in data set [3], in data set [5] and in [7] were 1.5, over 10.6 and 9.1, respectively.

As for `COc1cc2c(cc1OC)C(c1cc(OC)c(OC)c(OC)c1)CCC2` (racemic), the IC50 in data set [1] stood at 6.71 µM. Moreover, the Activity entry in the data set on A549 was “Non-Toxic”.

Turning to `Nc1ccn([C@@H]2CS[C@H](CO)O2)c(=O)n1` [LAMIVUDINE], the figures for the IC50 in data set [1] and in [6] were 0.51 µM and over 10 µM, respectively. Further, the “Ratio IC50” value in [7] is on record as over 19.6.

On to `Cc1ccnc2c1NC(=O)c1cccnc1N2C1CC1` [NEVIRAPINE], for which the IC50 was found to be 0.013 µM in data set [1], 0.91 µM in [2], 2.86 µM in data set [4] and 0.022 µM in data set [6]. Besides, the “Ratio IC50” value turned out to be 70 in data set [3], 220 in [5] and 1.7 in data set [7].
